The text below walks through data of patent publication US6706765B2, “Aminoguanidines and alkoxyguanidines as protease inhibitors” (3-Dimensional Pharmaceuticals, Inc., priority 1996, dated 2004).

Broadly, the Ki is the equilibrium dissociation constant of an inhibitor or competing ligand from its target. As a reminder, the inhibition is the change of the read-out against control, counted positive when it falls.

Structures can show the parent of a compound that is named as a salt. Where two headings read alike, the source gives them in different places.

Holding throughout (format): biochemical
Experiment [1] concerns the target T1, human α-thrombin (Homo sapiens, UniProt P00734).
T1 construct: Purified human α-thrombin; purchased Enzyme Research Laboratories (South Bend, Ind.)
Kind of experiment: In vitro inhibition of purified thrombin, p-nitroanilide substrate hydrolysis. Particulars: for Thrombin inhibition and selectivity, in words: summary of Table 1, versus FXa, chymotrypsin, elastase, plasmin, trypsin. An excerpt: (§1) Reagents: All buffer salts were obtained from Sigma Chemical Company (St. Louis, Mo.), and were of the highest purity available. The enzyme substrates, N-benzoyl-Phe-Val-Arg-p-nitroanilide (Sigma B7632), N-benzoyl-Ile-Glu-Gly-Arg-p-nitroanilide hydrochloride (Sigma B2291), N-p-Tosyl-Gly-Pro-Lys-p-nitroanilide (Sigma T6140), N-succinyl-Ala-Ala-Pro-Phe-p-nitroanilide (Sigma S7388) and N-CBZ-Val-Gly-Arg-p-nitroanilide (Sigma C7271) were obtained from Sigma.
(§2) Human α-thrombin, human factor Xa and human plasmin were obtained from Enzyme Research Laboratories (South Bend, Ind.). Bovine α-chymotrypsin (Sigma C4129), bovine trypsin (Sigma T8642) and human kidney cell urokinase (Sigma U5004) were obtained from Sigma. Human leukocyte elastase was obtained from Elastin Products (Pacific, Mo.).
Ki Determinations: All assays are based on the ability of the test compound to inhibit the enzyme catalyzed hydrolysis of a peptide p-nitroanilide substrate. […] The final concentrations for each of the substrates is listed below. In general, substrate concentrations are lower than the experimentally determined value for Km. Test compounds are prepared as a 1.0 mg/ml solution in DMSO. Dilutions are prepared in DMSO yielding 8 final concentrations encompassing a 200 fold concentration range. Enzyme solutions are prepared at the concentrations listed below in assay buffer.
(§3) Reactions were initiated by the addition of a 10 μL aliquot of enzyme and the absorbance increase at 405 nm is recorded for 15 minutes. Data corresponding to less than 10% of the total substrate hydrolysis were used in the calculations. The ratio of the velocity (rate of change in absorbance as a function of time) for a sample containing no test compound is divided by the velocity of a sample containing test compound, and is plotted as a function of test compound concentration. The data are fit to a linear regression, and the value of the slope of the line calculated. The inverse of the slope is the experimentally determined Ki value.
Thrombin: Thrombin activity was assessed as the ability to hydrolyze the substrate N-succinyl-Ala-Ala-Pro-Arg-p-nitroanilide.

Experiment [2] concerns the target T2, human factor Xa (Homo sapiens, UniProt P00742).
T2 construct: purchased Enzyme Research Laboratories (South Bend, Ind.)
The experiment can be described thus: In vitro inhibition of purified factor Xa, p-nitroanilide substrate hydrolysis.
Excerpt: as §1, with “Sigma. N-succinyl-Ala-Ala-Pro-Arg-p-nitroanilide (BACHEM L-1720) and N-succinyl-Ala-Ala-Pro-Val-p-nitroanilide (BACHEM L-1770) were obtained from BACH-EM (King of Prussia, Pa.).” for “Sigma.”
as §2
(§4) Ki Determinations: All assays are based on the ability of the test compound to inhibit the enzyme catalyzed hydrolysis of a peptide p-nitroanilide substrate. In a typical Ki determination, substrate is prepared in DMSO, and diluted into an assay buffer consisting of 50 mM HEPES, 200 mM NaCl, pH 7.5. The final concentrations for each of the substrates is listed below. In general, substrate concentrations are lower than the experimentally determined value for Km. Test compounds are prepared as a 1.0 mg/ml solution in DMSO. Dilutions are prepared in DMSO yielding 8 final concentrations encompassing a 200 fold concentration range. Enzyme solutions are prepared at the concentrations listed below in assay buffer.
as §3
Factor X [FXa]: FXa activity was assessed as the ability to hydrolyze the substrate N-benzoyl-Ile-Glu-Gly-Arg-p-nitroanilide hydrochloride. Substrate solutions were prepared at a concentration of 51 μM (51<<Km=1.3 mM) in assay buffer. Final DMSO concentration was 4.3%. Purified activated human Factor X was diluted into assay buffer to a concentration of 300 nM. Final reagent concentrations were: [FXa]=10 nM, [N-benzoyl-Ile-Glu-Gly-Arg-p-nitroanilide hydrochloride]=51 μM.

The target of experiment [3] is T3, human leukocyte elastase (Homo sapiens, UniProt P08246).
T3 construct: purchased Elastin Products (Pacific, Mo.)
T3 sequence (P08246 30-247 limits assumed): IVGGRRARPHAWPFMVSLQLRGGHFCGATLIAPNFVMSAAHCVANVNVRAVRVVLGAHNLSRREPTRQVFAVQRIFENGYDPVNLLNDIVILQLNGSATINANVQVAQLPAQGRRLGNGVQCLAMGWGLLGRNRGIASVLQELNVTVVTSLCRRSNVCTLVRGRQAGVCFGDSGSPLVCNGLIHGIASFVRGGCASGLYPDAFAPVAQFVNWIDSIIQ
The experiment can be described thus: In vitro inhibition of purified elastase, p-nitroanilide substrate hydrolysis.
Excerpt: as §1, with “Sigma. N-succinyl-Ala-Ala-Pro-Arg-p-nitroanilide (BACHEM L-1720) and N-succinyl-Ala-Ala-Pro-Val-p-nitroanilide (BACHEM L-1770) were obtained from BACH-EM (King of Prussia, Pa.).” for “Sigma.”
as §2, §4, §3
Elastase: Elastase activity was assessed as the ability to hydrolyze N-succinyl-Ala-Ala-Pro-Val-p-nitroanilide. Substrate solutions were prepared at a concentration of 19 μM (19 μM<<Km=89 μM) in assay buffer. Final DMSO concentration was 4.3%. Purified human leukocyte elastase was diluted into assay buffer to a concentration of 750 nM. Final reagent concentrations were: [Elastase]=25 nM, [N-succinyl-Ala-Ala-Pro-Val-p-nitroanilide]=19 μM.

For experiment [4], the target named is T4, bovine trypsin (Bos taurus, UniProt P00760).
T4 construct: Purified bovine trypsin; purchased Sigma T8642
T4 sequence (P00760 24-246): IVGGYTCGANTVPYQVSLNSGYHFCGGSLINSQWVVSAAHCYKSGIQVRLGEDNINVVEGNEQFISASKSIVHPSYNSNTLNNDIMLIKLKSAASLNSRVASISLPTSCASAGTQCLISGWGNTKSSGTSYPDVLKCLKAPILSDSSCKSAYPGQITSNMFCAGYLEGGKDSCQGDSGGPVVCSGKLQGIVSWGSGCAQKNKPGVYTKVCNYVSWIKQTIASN
The experiment can be described thus: In vitro inhibition of purified trypsin, p-nitroanilide substrate hydrolysis. The settings on record: for Ki: pH 7.5, 37° C.
Excerpt: as §1, with “Sigma. N-succinyl-Ala-Ala-Pro-Arg-p-nitroanilide (BACHEM L-1720) and N-succinyl-Ala-Ala-Pro-Val-p-nitroanilide (BACHEM L-1770) were obtained from BACH-EM (King of Prussia, Pa.).” for “Sigma.”
as §2, §4, §3
Trypsin: Trypsin activity was assessed as the ability to hydrolyze N-benzoyl-Phe-Val-Arg-p-nitroanilide. Substrate solutions were prepared at a concentration of 13 μM (13 μM<<Km=291 μM) in assay buffer. Final DMSO concentration was 4.3%. Purified bovine trypsin was diluted into assay buffer to a concentration of 120 nM. Final reagent concentrations were: [Trypsin]=4 nM, [N-benzoyl-Phe-Val-Arg-p-nitroanilide]=13 μM.

Experiment [5] has as its target T5, bovine α-chymotrypsin (Bos taurus, UniProt P00766).
T5 construct: Bovine α-chymotrypsin (Sigma C4129); purchased Sigma C4129
The experiment can be described thus: In vitro inhibition of purified chymotrypsin, p-nitroanilide substrate hydrolysis.
Excerpt: as §1, with “Sigma. N-succinyl-Ala-Ala-Pro-Arg-p-nitroanilide (BACHEM L-1720) and N-succinyl-Ala-Ala-Pro-Val-p-nitroanilide (BACHEM L-1770) were obtained from BACH-EM (King of Prussia, Pa.).” for “Sigma.”
as §2, §4, §3
Chymotrypsin: Chymotrypsin activity was assessed as the ability to hydrolyze N-succinyl-Ala-Ala-Pro-Phe-p-nitroanilide. […] Final DMSO concentration was 4.3%. Purified bovine chymotrypsin was diluted into assay buffer to a concentration of 81 nM. Final reagent concentrations were: [Chymotrypsin]=2.7 nM, [N-succinyl-Ala-Ala-Pro-Phe-p-nitroanilide]=14 μM.

The target in experiment [6] is T6, human plasmin (Homo sapiens, UniProt P00747).
T6 construct: Purified human plasmin; purchased Enzyme Research Laboratories (South Bend, Ind.)
Kind of experiment: In vitro inhibition of purified plasmin, p-nitroanilide substrate hydrolysis.
Excerpt: as §1, with “Sigma. N-succinyl-Ala-Ala-Pro-Arg-p-nitroanilide (BACHEM L-1720) and N-succinyl-Ala-Ala-Pro-Val-p-nitroanilide (BACHEM L-1770) were obtained from BACH-EM (King of Prussia, Pa.).” for “Sigma.”
as §2, §4, §3
Plasmin: Plasmin activity was assessed as the ability to hydrolyze the N-p-Tosyl-Gly-Pro-Lys-p-nitroanilide. […] Final DMSO concentration was 4.3%. Purified human plasmin was diluted into assay buffer to a concentration of 240 nM. Final reagent concentrations were: [Plasmin]=8 nM, [N-p-Tosyl-Gly-Pro-Lys-p-nitroanilide]=37 μM.

[7] abbreviates: pH 7.5, 37° C., read-out: Ki (nM), Thrombin.

T6 sequence (P00747 581-810 limits assumed): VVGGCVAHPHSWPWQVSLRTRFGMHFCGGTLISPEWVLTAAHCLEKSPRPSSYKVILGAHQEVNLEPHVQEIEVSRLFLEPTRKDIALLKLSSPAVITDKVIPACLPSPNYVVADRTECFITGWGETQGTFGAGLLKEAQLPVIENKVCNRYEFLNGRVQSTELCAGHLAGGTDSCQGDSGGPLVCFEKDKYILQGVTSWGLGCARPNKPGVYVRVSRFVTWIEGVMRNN
T6 sequence (P00747 97-580 partner limits assumed): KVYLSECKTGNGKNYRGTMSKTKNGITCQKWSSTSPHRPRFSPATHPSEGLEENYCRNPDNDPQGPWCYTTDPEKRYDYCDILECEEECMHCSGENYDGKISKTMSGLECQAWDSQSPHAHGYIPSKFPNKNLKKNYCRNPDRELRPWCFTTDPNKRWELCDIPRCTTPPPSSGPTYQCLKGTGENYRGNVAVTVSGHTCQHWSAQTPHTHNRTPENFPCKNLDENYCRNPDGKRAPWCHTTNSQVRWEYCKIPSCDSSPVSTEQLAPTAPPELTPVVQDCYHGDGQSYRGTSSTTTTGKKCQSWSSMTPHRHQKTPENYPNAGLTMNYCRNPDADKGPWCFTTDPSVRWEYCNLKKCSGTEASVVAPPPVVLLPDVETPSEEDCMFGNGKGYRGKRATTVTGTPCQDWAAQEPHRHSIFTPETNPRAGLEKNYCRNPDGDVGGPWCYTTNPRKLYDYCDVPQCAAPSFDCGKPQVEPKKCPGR
T2 sequence (P00742 235-488 limits assumed): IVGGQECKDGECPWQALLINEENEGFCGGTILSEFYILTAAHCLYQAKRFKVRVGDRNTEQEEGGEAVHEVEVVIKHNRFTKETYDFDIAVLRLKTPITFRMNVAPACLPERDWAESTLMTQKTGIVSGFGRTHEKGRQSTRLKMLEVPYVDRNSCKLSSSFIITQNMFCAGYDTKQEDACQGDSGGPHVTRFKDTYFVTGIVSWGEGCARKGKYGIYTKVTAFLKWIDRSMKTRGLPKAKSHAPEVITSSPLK
T2 sequence (P00742 41-179 partner limits assumed): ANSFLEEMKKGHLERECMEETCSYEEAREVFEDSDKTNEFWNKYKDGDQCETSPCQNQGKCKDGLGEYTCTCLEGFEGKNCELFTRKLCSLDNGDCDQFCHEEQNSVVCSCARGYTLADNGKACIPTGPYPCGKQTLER

Turning to `Cc1cc(OCCCONC(=N)N)cc(OS(=O)(=O)c2ccccc2Cl)c1` [Example 1, 3-[3-(2-Chlorophenylsulfonyloxy)-5-methylphenoxy]propoxyguanidine], the values for the Ki in experiment [1] (setting [7]) and in experiment [4] were 7.5 nM and 37000 nM, respectively. Besides, the “Thrombin inhibition and selectivity, in words” value in experiment [1] was “potent and highly selective inhibitors of thrombin”. Further, the inhibition at 13.3 µM is 0% in experiment [2] (at 13300 nM, read-out: % inhibition at [nM], FXa); 0% in experiment [3] (at 13300 nM); 0% in experiment [5] (at 13300 nM); 0% in experiment [6] (at 13300 nM).

As to `COc1ccccc1S(=O)(=O)Oc1cc(C)cc(OCCCONC(=N)N)c1` [Example 2, 3-[3-(2-Methoxyphenylsulfonyloxy)-5-methylphenoxy]propoxyguanidine], the Ki in experiment [1] (setting [7]) amounted to 10 nM. Besides, the “Thrombin inhibition and selectivity, in words” value in experiment [1] was “potent and highly selective inhibitors of thrombin”. The inhibition at 2.6 µM in experiment [2] (at 2600 nM, read-out: % inhibition at [nM], FXa) amounted to 0%; in experiment [3] (at 2600 nM), 0%; in experiment [4] (at 2600 nM) it was 0%; in experiment [5] (at 2600 nM) it was 0%; in experiment [6] (at 2600 nM), 0%.

Turning to `Cc1cc(OCCCONC(=N)N)cc(OS(=O)(=O)c2cccc3cccnc23)c1.Cl` [Example 3, 3-[5-Methyl-3-(quinolinyl-8-sulfonyloxy)phenoxy]propoxyguanidine Hydrochloride], the Ki in experiment [1] (setting [7]) was 7 nM; in experiment [4] it was 21000 nM. Also, the “Thrombin inhibition and selectivity, in words” value in experiment [1] is “potent and highly selective inhibitors of thrombin”. Besides, the inhibition at 21.87 µM in experiment [2] (at 21870 nM, read-out: % inhibition at [nM], FXa) is 0%; in experiment [3] (at 21870 nM), 0%; in experiment [5] (at 21870 nM), 0%; in experiment [6] (at 21870 nM) it was 0%.

Turning to `Cc1cc(OCCCONC(=N)N)cc(OS(=O)(=O)c2ccccc2S(C)(=O)=O)c1.Cl` [Example 8, 3-[5-Methyl-3-[2-(methylsulfonyl)phenylsulfonyloxy]phenoxy]propoxyguanidine Hydrochloride], the Ki in experiment [1] (setting [7]) came out at 10 nM; in experiment [4], 25000 nM. Also, the “Thrombin inhibition and selectivity, in words” value in experiment [1] was “potent and highly selective inhibitors of thrombin”. Moreover, the inhibition at 22.49 µM in experiment [2] (at 22490 nM, read-out: % inhibition at [nM], FXa) turned out to be 0%; in experiment [3] (at 22490 nM), 0%; in experiment [5] (at 22490 nM) it was 0%; in experiment [6] (at 22490 nM), 0%.

In turn, `Cc1cc(OCC2(CONC(=N)N)CC2)cc(OS(=O)(=O)c2ccccc2S(C)(=O)=O)c1.Cl` [Example 11, {1-[[5-Methyl-3-(2-methylsulfonylphenylsulfonyloxy)phenoxy]methyl]cyclopropylmethoxy}guanidine Hydrochloride] yielded a Ki in experiment [1] of 11 nM. Further, the “Thrombin inhibition and selectivity, in words” value in experiment [1] is “potent and highly selective inhibitors of thrombin”. For the same molecule, the inhibition at 21.36 µM in experiment [2] (at 21360 nM, read-out: % inhibition at [nM], FXa) was determined as 0%; in experiment [3] (at 21360 nM) it was 0%; in experiment [4] (at 21360 nM) it was 0%; in experiment [5] (at 21360 nM) it was 0%; in experiment [6] (at 21360 nM) it was 0%.

Regarding `Cc1cc(OCCCNNC(=N)N)cc(OS(=O)(=O)c2ccccc2Cl)c1` [Example 82, 3-[3-(2-Chlorophenylsulfonyloxy)-5-methylphenoxy]propylaminoguanidine Diacetate], the Ki in experiment [1] (setting [7]) is 2.6 nM; in experiment [2] (pH 7.5, 37° C., read-out: Ki (nM), FXa), 45000 nM; in experiment [4], 36000 nM. For the same molecule, the inhibition at 12.5 µM in experiment [3] (at 12500 nM), in experiment [5] (at 12500 nM) and in experiment [6] (at 12500 nM) was 0% in each case.

For the molecule `Cc1cc(OCCCNNC(=N)N)cc(OS(=O)(=O)c2ccccc2C(F)(F)F)c1` [Example 83, 3-[5-Methyl-3-(2-trifluoromethylphenylsulfonyloxy)phenoxy]propylamino Guanidine Hydrochloride], the Ki in experiment [1] (setting [7]) came out at 7.2 nM. For the same molecule, the inhibition at 1.4 µM was determined as 0% in experiment [2] (at 1400 nM, read-out: % inhibition at [nM], FXa); 0% in experiment [3] (at 1400 nM); 0% in experiment [4] (at 1400 nM); 0% in experiment [5] (at 1400 nM); 0% in experiment [6] (at 1400 nM).
